Measured values: patent US4645772A, “Levorotatory enantiomers of derivatives of 5,6,13,13a-tetrahydro-8H-dibenzo [A,G]quinolizine, preparative process, pharmaceutical compositions containing them and application” (Urpha, priority 1982, dated 1987)
Entries after “also recorded” stand apart in the source; their conditions may differ. Like-named read-outs stand apart in the source and are kept apart here.

Columns and labels:
normotensive rat = assay: Hypotensive activity in the anesthetized normotensive rat; assay type: in vivo; conditions: for effect on blood pressure: 15 minutes after i.v. administration
Procedure: The study was carried out in the normotensive rat anesthetized with pentothal (40 mg.kg^-1 i.p.). The blood pressure was measured with a catheter placed in the carotid artery and linked to a pressure cell (Statham p 23 DB) and to a recorder according to the method described by Waeldele and Stoclet (J. Pharmacol. Paris 1973, 66, 357-366). The derivatives were administered in increasing doses every 15 minutes by intravenous injection (i.v.).
Each point is the average of the values obtained in n aminals ±standard error.
In FIG. 1 the abscissae show the quantities administered of the compound to be tested, and the ordinates show the average blood pressure ΔP mm Hg.

[1] = biological target: T1, α-adrenergic receptor / phenylephrine contraction of isolated rat aorta (Rattus norvegicus, UniProt P23944); assay: Antagonism of phenylephrine on the isolated rat aorta (α-blocking activity, Schild analysis); conditions: for type of antagonism against phenylephrine / affinity for the adrenergic receptor: isolated rat aorta; for r (correlation coefficient of the straight line): Schild's straight line; for r (correlation coefficient of the straight line) / n (slope of Schild's straight line) / Kb: against phenylephrine; for Kb: Schild's relation, read-out: pA2 (converted); for affinity for the adrenergic receptor: in words
T1 construct: phenylephrine on the isolated rat aorta; from tissue; host or cells: isolated rat aorta
T1 sequence (P23944 1-561): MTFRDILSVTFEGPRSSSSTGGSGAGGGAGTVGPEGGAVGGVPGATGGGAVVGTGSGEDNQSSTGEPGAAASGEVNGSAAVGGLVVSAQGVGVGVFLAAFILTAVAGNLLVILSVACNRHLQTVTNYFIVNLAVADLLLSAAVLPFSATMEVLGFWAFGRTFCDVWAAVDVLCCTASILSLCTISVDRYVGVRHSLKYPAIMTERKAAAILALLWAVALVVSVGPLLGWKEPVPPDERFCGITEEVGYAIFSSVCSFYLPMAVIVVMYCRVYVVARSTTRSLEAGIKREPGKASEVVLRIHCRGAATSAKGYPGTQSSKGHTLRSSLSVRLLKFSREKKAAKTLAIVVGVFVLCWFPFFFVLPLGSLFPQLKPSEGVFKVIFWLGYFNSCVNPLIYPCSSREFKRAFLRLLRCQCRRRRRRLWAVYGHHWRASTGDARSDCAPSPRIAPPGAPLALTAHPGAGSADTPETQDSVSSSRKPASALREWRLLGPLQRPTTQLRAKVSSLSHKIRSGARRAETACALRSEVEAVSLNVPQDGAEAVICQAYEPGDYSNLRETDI
Text: (2) Study of α-blocking activity: study of the antagonism between the derivatives of Berbine and phenylephrine on the isolated rat aorta
The quantitative evaluation of the antagonism between the derivatives to be tested and phenylephrine was made by analysis to effect-concentration relationships in the presence and absence of antagonist and the PA2 values calculated with Schild's relation (Arunlasksha na O. and Schild H. P., Br. J. Pharmacol., 1959, 14, 48-58). […] In FIG. 2 the E effect (% of maximum contraction) in the absence and presence of STB 6 (-) is given in the ordinate, and the abscissa gives the log of the phenylephrine concentration. The different curves relate to the following concentrations:
FIG. 2b is the Schild representation (x being the ratio of phenylephrine concentrations which gives a 50% response in the presence and in the absence of STB 6 (-)). On the ordinate are Log (x-1) and on the abscissa Log [(-) STB 6].
The parameters of Schild's relation were also measured in the presence of STB 52 (-) in the same experimental conditions as for STB 6 (-).

[2] = system: mesenteric territory, electrical stimulation of the sympathetic nerves; assay: Inhibition of sympathetic excitation in vivo: vasoconstriction of perfused mesenteric territory by electrical stimulation of sympathetic nerves; conditions: i.v. 0.5 mg.kg^-1; 7 Hz; rat
Procedure: (§1) This study was made for the most hypotensive derivative, STB 6. The vascular reactivity of the mesenteric territory perfused in situ in the rat was measured (according to Jackson and Campbell, Eur. J. Pharmacol., 1980, 66, 217-224). After anesthetizing of the rat with pentothal (40 mg.kg^-1 i.p.) the mesenteric territory was perfused at constant flow from a catheter diverting the blood stream of the abdominal aorta. The vasoconstrictor activity resulting from periarterial electrical excitation of the sympathetic nerves (7 Hz) and […] was measured. The activities of the Berbine derivatives administered intravenously were determined for the two types of pressure response. The results obtained are shown in FIGS. 4a and 4b in which the average blood pressure ΔP mm Hg is plotted on the ordinates and time plotted on the abscissae, the injection of the product to be tested or of the placebo (constituted by the same volume of physiological serum) being at time 0.
(§2) FIG. 4a relates to the vasoconstriction caused by electrical stimulation and FIG. 4b to that caused by noradrenalin.

α1 adrenergic receptors = assay: Binding to α1 adrenergic receptors (3H-prazosin), rat cerebral cortex homogenate; conditions: for Ki: read-out: SPECIFIC BINDING, Kl, α 1, 3H-prazosin, average of three assays; for affinity for the α1 receptor with respect to the α2 receptor: in words, comparison of α1 and α2 binding
Procedure: (§3) The tests were carried out on rat cerebral cortex homogenate, according to the method described by P. Greengross and R. Bremmerclaus, Eur. J. Pharmacol. (1979) 55 323-326.
(§4) The results represent the average of the three assays. The Ki values were calculated according to Cheng and Prussoff (Biochem. Parmacol. 1973 22 3099-3108).

α2 adrenergic receptors = biological target: T2, α2 adrenergic receptors (Rattus norvegicus, UniProt P22909); assay: Binding to α2 adrenergic receptors (3H-yohimbin), rat cerebral cortex homogenate; conditions: for Ki: SPECIFIC BINDING, Kl, α 2, 3H-yohimbin, average of three assays
T2 construct: from tissue; host or cells: rat cerebral cortex homogenate
T2 sequence (P22909 1-465): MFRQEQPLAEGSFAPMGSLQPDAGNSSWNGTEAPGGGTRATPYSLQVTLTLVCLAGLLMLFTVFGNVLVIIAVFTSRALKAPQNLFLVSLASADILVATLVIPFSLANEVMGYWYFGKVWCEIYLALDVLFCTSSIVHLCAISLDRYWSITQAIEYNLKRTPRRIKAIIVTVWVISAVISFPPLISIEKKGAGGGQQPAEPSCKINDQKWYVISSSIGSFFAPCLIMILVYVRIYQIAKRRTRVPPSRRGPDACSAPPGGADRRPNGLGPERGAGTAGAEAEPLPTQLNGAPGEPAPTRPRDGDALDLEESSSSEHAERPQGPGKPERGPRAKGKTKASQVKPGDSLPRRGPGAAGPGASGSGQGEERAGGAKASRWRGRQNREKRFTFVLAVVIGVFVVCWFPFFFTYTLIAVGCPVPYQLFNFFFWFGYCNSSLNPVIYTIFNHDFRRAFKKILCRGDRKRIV
Procedure: as §3, §4

[3] = Toxicity in the mouse (LD50); conditions: in vivo, male mice
Procedure: The LD50 was determined in the mouse. The derivatives to be tested were administered in aqueous solution containing 7% dimethylformamide, by esophageal forced feeding of 0.4 ml per 20 g of body weight, to male mice weighing 20 to 25 g.

[4] = system: hypertensive effects of adrenalin; conditions: dog; cited from earlier work
hypertensive patients = conditions: cited from earlier work
[5] = cat; cited from earlier work
[6] = dog; cited from earlier work
[7] = system: mesenteric territory, noradrenalin; assay: Vasoconstriction of perfused mesenteric territory caused by noradrenalin; assay type: in vivo; conditions: i.v. 0.5 mg.kg^-1; noradrenalin 200 ng; rat
Procedure: as §1, §2

COc1cc2c(cc1OC)CN1CCc3cc(O)ccc3C1C2 (single isomer, unassigned; (+)) [(+) STB 6, 10,11-dimethoxy-3-hydroxy-5,6,13,13a-tetrahydro-8H-dibenzo-[a,g]-quinolizine]
effect on blood pressure (normotensive rat): do not induce a significant decrease in blood pressure
type of antagonism against phenylephrine [1]: non-competitive antagonism against phenylephrine; also recorded: non-competitive antagonist of phenylephrine
effect on vasoconstriction / pressure response caused by electrical stimulation of the sympathetic nerves [2]: does not have a significant activity; also recorded: devoid of this activity at the same doses
Ki (α1 adrenergic receptors; rat cerebral cortex homogenate): 2930 ± 363 nM
Ki (α2 adrenergic receptors): 901 ± 299 nM

c1ccc2c(c1)CC1c3ccccc3CCN1C2 (single isomer, unassigned) [Berbine (+), 5,6,13,13a-tetrahydro-8H-dibenzo[a,g]quinolizine]
affinity for the α1 receptor with respect to the α2 receptor (α1 adrenergic receptors): comparable affinities for the α1 and α2 receptors
Ki (α1 adrenergic receptors; rat cerebral cortex homogenate): 4730 ± 538 nM
Ki (α2 adrenergic receptors): 569 ± 137 nM

COc1cc2c(cc1OC)CN1CCc3cc(OC(=O)Cc4ccccc4)ccc3C1C2 (single isomer, unassigned; (-)) [(-) STB 52, 10,11-dimethoxy-3-phenacetyloxy-5,6,13,13a-tetrahydro-8H-dibenzo-[a,g]-quinolizine]
r (correlation coefficient of the straight line) [1]: 0.99
n (slope of Schild's straight line) [1]: 1.00
Kb [1]: 100 nM
type of antagonism against phenylephrine [1]: as competitive an antagonist of phenylephrine as (-) STB 6
affinity for the adrenergic receptor [1]: strong affinity for the adrenergic receptor
LD50 ([3]; oral (esophageal forced feeding), 7% dimethylformamide in water): > 800 mg/kg
mortality ([3]; oral, 800 mg.kg^-1 (limit of solubility)): 30%

COC(=O)[C@@H]1[C@H]2C[C@H]3c4[nH]c5ccccc5c4CCN3C[C@@H]2CC[C@@H]1O [Yohimbin]
Ki (α1 adrenergic receptors; rat cerebral cortex homogenate): 322 ± 26 nM

^3 H-yohimbin [3H-yohimbin, reference compound]
maximum binding, α2 receptors (α2 adrenergic receptors; radioligand): 172.5±49.9 fmoles.mg protein^-1
Kd (α2 adrenergic receptors; read-out: KD of ligand, α2 receptors): 10.2 nM

c1ccc2c(c1)CC1c3ccccc3CCN1C2 (stereo not shown) [Berbine, 5,6,13,13a-tetrahydro-8H-dibenzo[a,g]quinolizine]
effect on hypertensive effects of adrenalin [4]: reverses the hypertensive effects of adrenalin
hypotensive activity (hypertensive patients): hypotensive activity

Oc1ccc2c(c1)CCN1Cc3ccccc3CC21 (single isomer, unassigned; (-)) [(-) STB 4, 3-hydroxy-5,6,13,13a-tetrahydro-8H-dibenzo-[a,g]-quinolizine]
effect on blood pressure (normotensive rat): significant drop in blood pressure
dose at which active on blood pressure (normotensive rat; i.v.): 1 mg/kg
Ki (α1 adrenergic receptors; rat cerebral cortex homogenate): 462 ± 10 nM
Ki (α2 adrenergic receptors): 307 ± 118 nM

Oc1ccc2c(c1)CCN1Cc3ccccc3CC21 (single isomer, unassigned; (+)) [(+) STB 4, 3-hydroxy-5,6,13,13a-tetrahydro-8H-dibenzo-[a,g]-quinolizine]
effect on blood pressure (normotensive rat): do not induce a significant decrease in blood pressure
Ki (α1 adrenergic receptors; rat cerebral cortex homogenate): 1220 ± 175 nM
Ki (α2 adrenergic receptors): 321 ± 72 nM

c1ccc2c(c1)CC1c3ccccc3CCN1C2 (single isomer, unassigned) [Berbine (-), 5,6,13,13a-tetrahydro-8H-dibenzo[a,g]quinolizine]
affinity for the α1 receptor with respect to the α2 receptor (α1 adrenergic receptors): comparable affinities for the α1 and α2 receptors
Ki (α1 adrenergic receptors; rat cerebral cortex homogenate): 212 ± 26 nM
Ki (α2 adrenergic receptors): 140 ± 44 nM
sympatholytic activity [5]: strong sympatholytic activity
sympatholytic activity [6]: strong sympatholytic activity

COc1cc2c(cc1OC)CN1CCc3cc(O)ccc3C1C2 (single isomer, unassigned; (-)) [(-) STB 6, 10,11-dimethoxy-3-hydroxy-5,6,13,13a-tetrahydro-8H-dibenzo-[a,g]-quinolizine]
effect on blood pressure (normotensive rat): significant drop in blood pressure
dose at which active on blood pressure (normotensive rat; i.v.): 1 mg/kg
hypotensive activity, rank among the derivatives studied (normotensive rat; i.v.): the most hypotensive of the derivatives studied
r (correlation coefficient of the straight line) [1]: 0.99
n (slope of Schild's straight line) [1]: 0.93
Kb [1]: 39.8 nM
type of antagonism against phenylephrine [1]: competitive
affinity for the adrenergic receptor [1]: strong affinity for the adrenergic receptor
effect on vasoconstriction / pressure response caused by electrical stimulation of the sympathetic nerves [2]: decreases the vasoconstriction of the mesenteric territory caused by the electrical stimulation of the sympathetic nerves; also recorded: reduces the pressure response to sympathetic excitation
effect on pressure response due to noradrenalin injection [7]: without modifying the pressure response due to noradrenalin injection
affinity for the α1 receptor with respect to the α2 receptor (α1 adrenergic receptors): strong affinity for the α1 receptor, with respect to that for the α2 receptor
Ki (α1 adrenergic receptors; rat cerebral cortex homogenate): 419 ± 132 nM
Ki (α2 adrenergic receptors): 1020 ± 335 nM

COc1cc2nc(N3CCN(C(=O)c4ccco4)CC3)nc(N)c2cc1OC [3H-prazosin, ^3 H-prazosin]
maximum binding, α1 receptors (α1 adrenergic receptors; radioligand, rat cerebral cortex homogenate): 200±21 fmoles.mg protein^-1
